According to patent publication US7601746B2 (Shionogi & Co., Ltd., priority 2003, dated 2009):
pEC50: −log10 of the molar value.

Molecular target: T1, human TPO receptor (hTPOR) (Homo sapiens, UniProt P40238)
T1 construct: expressed in transfected cells; host or cells: BaF-B03 (murine IL-3 dependent cell line)
T1 sequence (P40238 26-635): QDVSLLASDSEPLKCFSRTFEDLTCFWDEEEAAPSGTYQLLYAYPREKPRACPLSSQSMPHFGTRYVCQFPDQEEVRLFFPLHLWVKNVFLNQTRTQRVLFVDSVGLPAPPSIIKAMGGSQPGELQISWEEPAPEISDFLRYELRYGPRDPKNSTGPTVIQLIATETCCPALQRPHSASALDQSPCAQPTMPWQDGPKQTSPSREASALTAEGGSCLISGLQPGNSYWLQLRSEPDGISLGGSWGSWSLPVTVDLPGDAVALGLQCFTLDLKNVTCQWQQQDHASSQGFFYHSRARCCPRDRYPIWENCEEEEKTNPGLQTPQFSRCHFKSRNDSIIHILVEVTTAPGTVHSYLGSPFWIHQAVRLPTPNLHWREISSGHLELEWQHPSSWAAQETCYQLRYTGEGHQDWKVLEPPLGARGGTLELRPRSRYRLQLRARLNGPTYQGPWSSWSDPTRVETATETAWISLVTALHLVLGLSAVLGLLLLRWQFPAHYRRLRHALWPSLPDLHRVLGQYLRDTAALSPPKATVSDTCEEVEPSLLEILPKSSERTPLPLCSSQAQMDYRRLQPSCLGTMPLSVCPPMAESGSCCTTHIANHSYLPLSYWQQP
Test: Thrombopoietic activity: proliferation of TPO dependent BaF/hTPOR cells (WST-1, absorbance at 450 nm)
Assay type: cell-based
Conditions: 20 h + 4 h WST-1, ED50 = half concentration of the concentration showing the maximum thrombopoietic activity, Table 1
Summary of the method: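 Proliferation read-out: WST-1 absorbance at 450 nm after 20 h compound exposure plus 4 h reagent, using IL-3-deprived BaF/hTPOR cells (5×10^4 per well) dependent on human TPO receptor signalling. ED50 defined as half the concentration producing maximal activity.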

Row | Structure (SMILES) | pEC50
1 | CCC(CC)COCc1cccc(-c2csc(NC(=O)c3cc(F)c(/C=C(\C)C(=O)O)c(F)c3)n2)c1OC [Compound B2023, (E)-3-(4-{4-[3-(2-ethylbutyloxymethyl)-2-methyloxyphenyl]thiazol-2-ylcarbamoyl}-2,6-difluorophenyl)-2-methyl acrylic acid] | 8.19
2 | CCCCCOC(CCCC)c1cccc(-c2csc(NC(=O)c3cc(F)c(C=C(C)C(=O)O)c(F)c3)n2)c1F (stereo not drawn) [Compound B26, 3-(2,6-difluoro-4-{4-[2-fluoro-3-(1-n-pentyloxypentyl)phenyl]thiazol-2-ylcarbamoyl}phenyl)-2-methylacrylic acid] | 9.41
3 | CCC(CC)COCc1cccc(-c2csc(NC(=O)c3cc(F)c(/C=C(\OC)C(=O)O)c(F)c3)n2)c1OC [Compound B2024, (Z)-3-(4-{4-[3-(2-ethylbutyloxymethyl)-2-methyloxyphenyl]thiazol-2-ylcarbamoyl}-2,6-difluorophenyl)-2-methyloxyacrylic acid] | 8.00
4 | COc1c(-c2csc(NC(=O)c3cc(F)c(/C=C(\C)C(=O)O)c(F)c3)n2)cccc1C(CC(C)(C)C)OC (stereo not drawn) [Compound B349, (E)-3-(2,6-difluoro-4-{4-[2-methyloxy-3-(1-methyloxy-3,3-dimethylbutyl)phenyl]thiazol-2-ylcarbamoyl}phenyl)-2-methylacrylic acid] | 7.77
5 | CCC(CC)COCc1cccc(-c2csc(NC(=O)c3cc(Cl)c(/C=C(\C)C(=O)O)c(Cl)c3)n2)c1OC [Compound B2025, (E)-3-(2,6-dichloro-4-{4-[3-(2-ethylbutyloxymethyl)-2-methyloxyphenyl]thiazol-2-ylcarbamoyl}phenyl)-2-methylacrylic acid] | 8.49
6 | CCCCCCCCCC(OC)c1cccc(-c2csc(NC(=O)c3cc(F)c(/C=C(\C)C(=O)O)c(F)c3)n2)c1OC (stereo not drawn) [Compound B354, (E)-3-(2,6-difluoro-4-{4-[2-methyloxy-3-(1-methyloxydecyl)phenyl]thiazol-2-ylcarbamoyl}phenyl)-2-methylacrylic acid] | 8.49
7 | CCCCCCCCOc1cccc(-c2csc(NC(=O)c3cc(Cl)c(/C=C(\C)C(=O)O)c(Cl)c3)n2)c1OC [Compound B2005, (E)-3-{2,6-dichloro-4-[4-(2-methyloxy-3-octyloxyphenyl)thiazol-2-ylcarbamoyl]phenyl}-2-methylacrylic acid] | 7.99
8 | CC(=Cc1c(Cl)cc(C(=O)Nc2nc(-c3cccc(CCCOCCCC(C)C)c3F)cs2)cc1Cl)C(=O)O [Compound B84, 3-[2,6-dichloro-4-(4-[2-fluoro-3-[3-(4-methylpentyloxy)propyl]phenyl]thiazol-2-ylcarbamoyl)phenyl]-2-methylacrylic acid] | 8.99
9 | COc1c(CCCOCCC(C)C)cccc1-c1csc(NC(=O)c2cc(F)c(/C=C(\C)C(=O)O)c(F)c2)n1 [Compound B1851, (E)-3-[2,6-difluoro-4-(4-{2-methyloxy-3-[3-(3-methylbutyloxy)propyl]phenyl}thiazol-2-ylcarbamoyl)phenyl]-2-methylacrylic acid] | 7.77
10 | CCCCCOC(CCSC)c1cccc(-c2csc(NC(=O)c3cc(F)c(C=C(C)C(=O)O)c(F)c3)n2)c1F (stereo not drawn) [Compound B16, 3-(2,6-difluoro-4-{4-[2-fluoro-3-(3-methylthio-1-n-pentyloxypropyl)phenyl]thiazol-2-ylcarbamoyl}phenyl)-2-methylacrylic acid] | 9.11
11 | CCCCOC(CC)c1cccc(-c2csc(NC(=O)c3cc(Cl)c(C=C(C)C(=O)O)c(Cl)c3)n2)c1F (stereo not drawn) [Compound B82, 3-(4-{4-[3-(1-n-butyloxypropyl)-2-fluorophenyl]thiazol-2-ylcarbamoyl}-2,6-dichlorophenyl)-2-methylacrylic acid] | 8.97

Same assay, conditions: 20 h + 4 h WST-1, ED50 = half concentration of the concentration showing the maximum thrombopoietic activity, Table 2

Row | Structure (SMILES) | pEC50
12 | CO/C(=C\c1c(F)cc(C(=O)Nc2nc(-c3cccc(C(OC)C(C)(C)C)c3F)c(OC)s2)cc1F)C(=O)O (stereo not drawn) [Compound B1908, (Z)-3-(2,6-difluoro-4-{4-[2-fluoro-3-(1-methyloxy-2,2-dimethylpropyl)phenyl]-5-methyloxythiazol-2-ylcarbamoyl}phenyl)-2-methyloxyacrylic acid] | 7.58
